Results published in patent publication US4882343A, “Biarylalkylimidazole derivatives as anti-depressants” (G. D. Searle & Co., priority 1987, dated 1989).

Assays:
[1] = target: T1, α2 adrenergic receptor (Rattus norvegicus, UniProt P22909); test: in vitro binding to alpha2-adrenergic receptors (3H-p-aminoclonidine displacement), rat brain homogenates; conditions: for inhibition at 0.1 µM: compd. conc. 10^-7 M, ligand 3H-p-aminoclonidine 0.7 nM, rat brain homogenates, read-out: % Inhibition of the specific binding for α2 receptor, Ligand PAC; for Ki: ligand 3H-p-aminoclonidine, Cheng and Prusoff, read-out: α2 receptor Ki value, ligand PAC; for affinity for α2 receptors in the in vitro binding assay (in words): rat brain, result in words; for α2-receptor binding affinity for the aminoclonidine ligand relative to the ortho-pyridyl compound (Compound 3): para- and meta-pyridyl compounds versus ortho-pyridyl compound, Table III column 3
T1 construct: rat brain homogenates; from tissue; host or cells: rat brain homogenate
T1 sequence (P22909 1-465): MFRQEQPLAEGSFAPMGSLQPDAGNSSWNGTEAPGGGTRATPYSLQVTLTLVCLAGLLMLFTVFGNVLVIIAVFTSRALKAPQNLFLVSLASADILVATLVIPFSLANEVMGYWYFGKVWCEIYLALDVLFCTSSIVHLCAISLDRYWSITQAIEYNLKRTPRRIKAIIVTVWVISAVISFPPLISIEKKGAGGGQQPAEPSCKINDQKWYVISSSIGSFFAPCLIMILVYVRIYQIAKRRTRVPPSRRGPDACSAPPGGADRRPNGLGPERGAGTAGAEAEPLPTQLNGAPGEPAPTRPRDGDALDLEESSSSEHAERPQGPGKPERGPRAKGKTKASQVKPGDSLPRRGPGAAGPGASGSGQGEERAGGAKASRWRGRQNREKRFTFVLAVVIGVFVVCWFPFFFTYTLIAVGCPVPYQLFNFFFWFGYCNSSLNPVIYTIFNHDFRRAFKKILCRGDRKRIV
Protocol: (§1) This method measures the binding to the receptor on rat brain homogenates by marking by means of a specific tritiated ligand placed in competition with the product to be tested. […] The binding to the α2-adrenergic receptors was determined by uses of 0.7 nM of ^3 H-p-aminoclonidine (PAC). The non-specific binding was determined by use of 1,000 nM of phentolamine.
(§2) KD represents the dissociation constant of the ^3 H-ligand in the test mixture
(§3) [L*] represents the concentration of the ^3 H-ligand in the test mixture.

[2] = test system: α1 adrenergic receptor; test: in vitro binding to alpha1-adrenergic receptors (3H-WB4101 or 3H-prazosin displacement), rat brain homogenates; conditions: for % Inhibition of the specific binding for α1 receptor, Ligand WB / % Inhibition of the specific binding for α1 receptor, Ligand PRA: compd. conc. 10^-6 M, rat brain homogenates; for % Inhibition of the specific binding for α1 receptor, Ligand WB: ligand 3H-WB4101 1.6 nM; for % Inhibition of the specific binding for α1 receptor, Ligand PRA: ligand 3H-prazosin 0.2 nM; for Ki: ligand 3H-prazosin, Cheng and Prusoff, read-out: α1 receptor Ki value, ligand PRA
Protocol: Table II summarizes the binding activities for α1 and α2 adrenergic receptors of the compounds tested. The activity of the compounds according to the invention with respect to binding of the α-adrenergic receptors was determined in vitro according to a method derived from the works of B. R. Rouot, et al., Life Sci., 25, 769 (1979) of D. U'Prichard, et al., Mol. Pharmacol., 13, 454 (1977) and of P. Greengrass, et al., European J. Pharmacol., 55, 323, 1979. This method measures the binding to the receptor on rat brain homogenates by marking by means of a specific tritiated ligand placed in competition with the product to be tested. In the present case the binding, to the α1 -adrenergic receptors was measured by use of 1.6 nM of H-WB 4101 (WB) and 0.2 nM --H--prazosin (PRA). The binding to the α2-adrenergic receptors was determined by uses of 0.7 nM of ^3 H-p-aminoclonidine (PAC). The non-specific binding was determined by use of 1,000 nM of phentolamine. Results are given in Table II with columns 2 and 3 expressed in terms of percentage of inhibition of the specific binding at 10^-7 molar and 10^-6 molar compound concentration.
In Table III, columns 2 and 3 show the pKi values (pKi=-log inhibition constant) for respecively the α1 receptor (ligand ^3 H-prazosin) and the α2 receptor (ligand ^3 H-p-aminoclonidine), calculated according to the equation of Cheng and Prusoff: [formula] wherein: Ki represents the inhibition constant;
IC50 represents the concentration of the test compound providing 50% inhibition of the specific binding;
as §2, §3

[3] = target: T2, α2 adrenergic receptors (Cavia porcellus, UniProt Q60474); test: isolated guinea pig ileum, α2 antagonistic and α2 agonistic activity (clonidine inhibition of electrically induced contractions)
T2 construct: upon isolated organs according to a model described by G. Drews; from tissue; host or cells: isolated guinea pig ileum
T2 sequence (Q60474 1-464): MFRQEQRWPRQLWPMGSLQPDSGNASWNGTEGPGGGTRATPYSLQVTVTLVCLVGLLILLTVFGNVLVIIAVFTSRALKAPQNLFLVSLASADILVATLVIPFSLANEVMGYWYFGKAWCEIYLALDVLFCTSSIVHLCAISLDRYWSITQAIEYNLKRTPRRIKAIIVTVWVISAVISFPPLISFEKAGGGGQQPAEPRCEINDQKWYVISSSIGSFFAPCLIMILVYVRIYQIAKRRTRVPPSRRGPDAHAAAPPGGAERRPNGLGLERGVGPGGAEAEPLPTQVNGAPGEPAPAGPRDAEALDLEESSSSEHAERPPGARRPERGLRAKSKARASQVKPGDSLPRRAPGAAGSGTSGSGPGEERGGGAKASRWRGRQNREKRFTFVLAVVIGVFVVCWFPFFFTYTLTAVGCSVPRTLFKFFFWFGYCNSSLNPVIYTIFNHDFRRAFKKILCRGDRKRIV
Protocol: In Table IV, columns 3 and 4 summarize the in vitro activities of the compounds evaluated in a guinea pig ileum model. Column 5 summarizes the α2 antagonistic effects of the compounds in an in vivo animal model. The α2 antagonistic and α2 agonistic activities of the compounds according to the invention were determined upon isolated organs according to a model described by G. Drews, Br. J. Pharmaco., 64, 293-300 (1978). This model was based upon the principle that the stimulation of the cholinergic nervous transmissions of the guinea pig ileum causes the liberation of acetyl choline, which in turn causes contractions of the ileum. The stimulation of the α2 -adrenergic receptors inhibits the activity of the cholinergic nerves and consequently reduces all responses due to the latter. Thus the contractions of the ileum induced by electric stimulation are inhibited by clonidine, an α2 agonist, in proportion to the dose. This inhibition was selectively displaced by α2 antagonists and not by α1 antagonists. The method used can be summarized as follows. Three dose-response curves to clonidine were established at an interval of 60 minutes. […] The dose-response curves were calculated as a percentage of the maximum inhibition obtained for the first curve. […] The α2 antagonist activity, expressed in pA2 value shown in column 3 of Table IV, was calculated according to J. M. Van Rossum, Arch. […]

[4] = acute toxicity after oral administration to mice (LD50); conditions: mouse, in vivo, mortality recorded for 15 days
Protocol: The acute toxicity of the compounds of the present invention was studied after oral administration to mice. The products to be tested, suspended in a 1% tragacanth gum mucilage, were administered by means of an intragastric probe to groups of three male mice which had fasted since the preceding day. The doses tested are a function of the effect observed and can vary from 3,000 to 3 mg/kg or less. The mortality was recorded for 15 days. The lethal dose for 50% of the animals (LD50) was calculated according to the method of J. Litchfield and F. Wilcoxon, J. Pharmacol. Exp. Ther., 96, 99 (1949) and expressed in mg/kg. The effect of the products on the behavior of the animals was observed during a 5-to-6 hour period after the treatment indicated above and after 24 hours, using a method derived from that of S. Irwin, described by R. A. Turner, Screening Methods in Pharmacology, Chapter 3, pages 22-34, Academic Press, 1965. If anomalies were noted, the observation was prolonged and smaller doses were tested. The compounds of the present invention have been subjected to a series of in vitro and in vivo tests to determine their biological activity and therapeutic utility. The essential activity of importance resides in the α2 receptor antagonistic activity. […]

[5] = test system: α2 adrenergic receptor; test: in vitro binding to alpha2-adrenergic receptors (3H-p-aminoclonidine displacement), rat brain homogenates; conditions: ratio of Ki, ligand PRA (α1) / ligand PAC (α2)
Protocol: as §1, §2, §3

[6] = test system: clonidine-induced depression of locomotor activity (α2 agonist effects); test: open field test, antagonism of clonidine-induced depression of locomotor and rearing activity; type: in vivo, mouse; conditions: 3 mg/kg p.o.; for Open field test % inhibition of clonidine hypomobility, Locomotion / Open field test % inhibition of clonidine hypomobility, Rearing: 1 h before clonidine 150 μg/kg i.p., mouse
Protocol: This study involved clonidine α2 agonist effects on central control of locomotor activity. Clonidine inhibits locomotor activity and rearing activity in the mouse. In this "open field" test, mice were pretreated with the compounds of the present invention at a dose of 3 mg/kg p.o. (n=4 to 8), one hour prior to intraperitoneal administration of clonidine in solution (150 μg/kg, i.p.). Ninety minutes after the clonidine administration the animals were placed in a rectangular "open field" of 47×53 cm, having a floor divided into 36 boxes of about 8×9 cm. The number of boxes through which the animal goes in 3 minutes and the number of rearing episode were noted.

With `c1ccc(C(Cc2c[nH]cn2)c2ccccn2)cc1` (stereo not drawn) [Compound 3, 4(5)-[2-phenyl-2-(2-pyridyl)-ethyl]-imidazole] as the molecule, how does the inhibition at 0.1 µM [1] read?
The inhibition at 0.1 µM was 40%.

And the Ki [1]?
Its Ki is 73 nM.

And the “% Inhibition of the specific binding for α1 receptor, Ligand WB” value (“% Inhibition … Ligand WB” for short) [2]?
The value was 0%.

And the Kb ([3]; against clonidine, read-out: α2 antagonist activity pA2 (converted))?
Its Kb is 50.1 nM.

And the EC50 ([3]; pD2 = -log ED50, 50% of maximum inhibition obtained with clonidine, read-out: α2 agonist activity pD2 (converted))?
The EC50 was 100000 nM.

And the LD50 at 360 h [4]?
Its LD50 at 360 h is 130 mg/kg.

For `c1ccc(C(Cc2c[nH]cn2)c2ccncc2)cc1` (stereo not drawn) [Compound 1, 4(5)-[2-phenyl-2-(4-pyridinyl)-ethyl]-imidazole], which “Selectivity of α1/α2 affinity (Kiα1/Kiα2)” value (shortened to “Selectivity”) [5] is on record?
Its value is 2900.

What about the inhibition at 0.1 µM [1] of the same molecule?
Its inhibition at 0.1 µM is 91%.

And the “affinity for α2 receptors in the in vitro binding assay (in words)” value [1]?
The value was “high affinity for α2 receptors”.

What about the Ki [1] of the same molecule?
The Ki was 4.6 nM.

What about the “α2-receptor binding affinity for the aminoclonidine ligand relative to the ortho-pyridyl compound (Compound 3)” value [1] of the same molecule?
The value was “fifteen times higher”.

What about the “% Inhibition … Ligand WB” value [2] of the same molecule?
Its value is 2%.

And the “% Inhibition of the specific binding for α1 receptor, Ligand PRA” value (“% Inhibition … Ligand PRA” for short) [2]?
Its value is 14%.

And the Ki [2]?
Its Ki is 13400 nM.

What about the “Open field test % inhibition of clonidine hypomobility, Locomotion” value [6] of the same molecule?
Its value is 90%.

And the “Open field test % inhibition of clonidine hypomobility, Rearing” value [6]?
Its value is 80%.

What about the “antagonism of clonidine-induced depression of locomotor and rearing activity (in words)” value ([6]; mouse open field, result in words) of the same molecule?
Its value is “very active in this test”.

For `c1ccc(C(Cc2c[nH]cn2)c2ccccc2)cc1` [CC, reference compound], which “Selectivity” value [5] is on record?
Its value is 85.

And the Ki [1]?
The Ki was 7.8 nM.

What about the “% Inhibition … Ligand WB” value [2] of the same molecule?
The value was 21%.

What about the “% Inhibition … Ligand PRA” value [2] of the same molecule?
Its value is 27%.

What about the Ki [2] of the same molecule?
Its Ki is 660 nM.

And the “Open field test % inhibition of clonidine hypomobility, Locomotion” value [6]?
The value was 100%.

What about the “Open field test % inhibition of clonidine hypomobility, Rearing” value [6] of the same molecule?
The value was 100%.

Which “Selectivity” value [5] does the source give for `c1ccc(C(Cc2c[nH]cn2)c2cccnc2)cc1` (stereo not drawn) [Compound 2, 4(5)-[2-phenyl-2-(3-pyridinyl)-ethyl]-imidazole] here?
Its value is 540.

And the inhibition at 0.1 µM [1]?
The inhibition at 0.1 µM was 94%.

And the “affinity for α2 receptors in the in vitro binding assay (in words)” value [1]?
The value was “high affinity for α2 receptors”.

What about the Ki [1] of the same molecule?
The Ki was 4.8 nM.

And the “α2-receptor binding affinity for the aminoclonidine ligand relative to the ortho-pyridyl compound (Compound 3)” value [1]?
Its value is “fifteen times higher”.

What about the “% Inhibition … Ligand WB” value [2] of the same molecule?
Its value is 7%.

What about the “% Inhibition … Ligand PRA” value [2] of the same molecule?
Its value is 10%.

What about the Ki [2] of the same molecule?
Its Ki is 2600 nM.

And the LD50 at 360 h [4]?
The LD50 at 360 h was roughly 175 mg/kg.
